Paper PMC6409085, “Three odorant-binding proteins are involved in the behavioral response of Sogatella furcifera to rice plant volatiles” (PeerJ, 2019)
“And” between values parts separate entries of the source, which are not always exact repeats. Identical values can stand only once.

Assays:
Assay in all cases: biochemical
Format in all cases: binding
SfurOBP1 = SfurOBP1 (Sogatella furcifera, UniProt V5T8N5); settings: for Fluorescence competitive binding assay, fluorescence intensity: OBP1, three replicate columns;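 for Fluorescence competitive binding assay, fluorescence intensity: competitor odorant at 2 to 20 µM with protein and 1-NPN both 2.0 µM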
Procedure, shortened: (§1)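 Fluorescence competitive binding used 2.0 µM SfurOBP and 2.0 µM 1-NPN reporter in 50 mM Tris-HCl, pH 7.4, with odorants at 2-20 µM. Fluorescence was read 2 min after adding the odorant (excitation 337 nm, emission 390-490 nm), in triplicate. Ki was calculated from IC50 as IC50/(1 + [1-NPN]/K1-NPN).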

SfurOBP11 = SfurOBP11 (Sogatella furcifera, UniProt V5T6E3)
Procedure, shortened: as §1

SfurOBP2 = SfurOBP2 (Sogatella furcifera, UniProt V5T759)
Procedure, shortened: as §1

SfurOBP3 = SfurOBP3 (Sogatella furcifera, UniProt V5T818); settings: for Fluorescence competitive binding assay, fluorescence intensity: OBP3, three replicate columns;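 for Fluorescence competitive binding assay, fluorescence intensity: competitor odorant at 2 to 20 µM with protein and 1-NPN both 2.0 µM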
Procedure, shortened: as §1

SfurOBP2, sequence (V5T759 entry or part of it): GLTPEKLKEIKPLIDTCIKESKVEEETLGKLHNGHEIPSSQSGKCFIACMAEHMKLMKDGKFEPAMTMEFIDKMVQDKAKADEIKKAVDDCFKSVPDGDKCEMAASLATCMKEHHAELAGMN
SfurOBP3, sequence (V5T818 entry or part of it): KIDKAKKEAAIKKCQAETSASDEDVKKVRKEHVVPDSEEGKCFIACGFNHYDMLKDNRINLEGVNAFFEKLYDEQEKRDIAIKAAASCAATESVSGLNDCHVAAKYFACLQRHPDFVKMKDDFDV
SfurOBP11, sequence (V5T6E3 entry or part of it): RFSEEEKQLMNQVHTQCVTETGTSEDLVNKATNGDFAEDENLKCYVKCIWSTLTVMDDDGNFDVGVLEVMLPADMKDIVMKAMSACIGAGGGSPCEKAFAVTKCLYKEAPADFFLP
SfurOBP1, sequence (V5T8N5 entry or part of it): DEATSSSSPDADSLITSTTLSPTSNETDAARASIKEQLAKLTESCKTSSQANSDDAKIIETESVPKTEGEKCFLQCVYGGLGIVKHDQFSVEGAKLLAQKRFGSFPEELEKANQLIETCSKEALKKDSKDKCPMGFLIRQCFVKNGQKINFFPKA

c1ccc2ccccc2c1 [naphthalene] was tested, and the IC50 (SfurOBP1) was > 20 µM, the “Fluorescence competitive binding assay, fluorescence intensity” value (SfurOBP1; ligand concentration 2 (μM)) was 5483 and 5608 and 5501 and the “Fluorescence competitive binding assay, fluorescence intensity” value (SfurOBP1; ligand concentration 4 (μM)) was 5830 and 5745 and 5659. For the same molecule, the “Fluorescence competitive binding assay, fluorescence intensity” value (SfurOBP1; ligand concentration 6 (μM)) was 5799 and 5826 and 5942, the “Fluorescence competitive binding assay, fluorescence intensity” value (SfurOBP1; ligand concentration 8 (μM)) was 6002 and 5983 and 5964 and the “Fluorescence competitive binding assay, fluorescence intensity” value (SfurOBP1; ligand concentration 10 (μM)) was 5834 and 6388 and 6102. For the same molecule, the “Fluorescence competitive binding assay, fluorescence intensity” value (SfurOBP1; ligand concentration 12 (μM)) was 6285 and 6121 and 6209, the “Fluorescence competitive binding assay, fluorescence intensity” value (SfurOBP1; ligand concentration 14 (μM)) was 6231 and 6194 and 6297 and the “Fluorescence competitive binding assay, fluorescence intensity” value (SfurOBP1; ligand concentration 16 (μM)) was 6398 and 6743 and 6035. For the same molecule, the “Fluorescence competitive binding assay, fluorescence intensity” value (SfurOBP1; ligand concentration 18 (μM)) was 6548 and 7178 and 7195, the “Fluorescence competitive binding assay, fluorescence intensity” value (SfurOBP1; ligand concentration 20 (μM)) was 7389 and 7177 and 6994 and the IC50 (SfurOBP11) was > 20 µM. The “Fluorescence intensity, fluorescence competitive binding assay, OBP11” value (shortened to “Fluorescence intensity … OBP11”) (SfurOBP11; ligand concentration 2, replicate 1) was 34403, the “Fluorescence intensity … OBP11” value (SfurOBP11; ligand concentration 2, replicate 2) was 32473 and the “Fluorescence intensity … OBP11” value (SfurOBP11; ligand concentration 2, replicate 3) was 34898. The “Fluorescence intensity … OBP11” value (SfurOBP11; ligand concentration 4, replicate 1) was 34130, the “Fluorescence intensity … OBP11” value (SfurOBP11; ligand concentration 4, replicate 2) was 34738 and the “Fluorescence intensity … OBP11” value (SfurOBP11; ligand concentration 4, replicate 3) was 32492. The “Fluorescence intensity … OBP11” value (SfurOBP11; ligand concentration 6, replicate 1) was 35498, the “Fluorescence intensity … OBP11” value (SfurOBP11; ligand concentration 6, replicate 2) was 33550 and the “Fluorescence intensity … OBP11” value (SfurOBP11; ligand concentration 6, replicate 3) was 32552. The “Fluorescence intensity … OBP11” value (SfurOBP11; ligand concentration 8, replicate 1) was 32155, the “Fluorescence intensity … OBP11” value (SfurOBP11; ligand concentration 8, replicate 2) was 35048 and the “Fluorescence intensity … OBP11” value (SfurOBP11; ligand concentration 8, replicate 3) was 30051. The “Fluorescence intensity … OBP11” value (SfurOBP11; ligand concentration 10, replicate 1) was 30839, the “Fluorescence intensity … OBP11” value (SfurOBP11; ligand concentration 10, replicate 2) was 29352 and the “Fluorescence intensity … OBP11” value (SfurOBP11; ligand concentration 10, replicate 3) was 29736. The “Fluorescence intensity … OBP11” value (SfurOBP11; ligand concentration 12, replicate 1) was 30215, the “Fluorescence intensity … OBP11” value (SfurOBP11; ligand concentration 12, replicate 2) was 28382 and the “Fluorescence intensity … OBP11” value (SfurOBP11; ligand concentration 12, replicate 3) was 27824. The “Fluorescence intensity … OBP11” value (SfurOBP11; ligand concentration 14, replicate 1) was 26586, the “Fluorescence intensity … OBP11” value (SfurOBP11; ligand concentration 14, replicate 2) was 26869 and the “Fluorescence intensity … OBP11” value (SfurOBP11; ligand concentration 14, replicate 3) was 27309. For the same molecule, the “Fluorescence intensity … OBP11” value (SfurOBP11; ligand concentration 16, replicate 1) was 25698, the “Fluorescence intensity … OBP11” value (SfurOBP11; ligand concentration 16, replicate 2) was 25045 and the “Fluorescence intensity … OBP11” value (SfurOBP11; ligand concentration 16, replicate 3) was 25361. The “Fluorescence intensity … OBP11” value (SfurOBP11; ligand concentration 18, replicate 1) was 25004, the “Fluorescence intensity … OBP11” value (SfurOBP11; ligand concentration 18, replicate 2) was 25141 and the “Fluorescence intensity … OBP11” value (SfurOBP11; ligand concentration 18, replicate 3) was 24946. The “Fluorescence intensity … OBP11” value (SfurOBP11; ligand concentration 20, replicate 1) was 23792, the “Fluorescence intensity … OBP11” value (SfurOBP11; ligand concentration 20, replicate 2) was 23804 and the “Fluorescence intensity … OBP11” value (SfurOBP11; ligand concentration 20, replicate 3) was 23815. For the same molecule, the IC50 (SfurOBP2) was > 20 µM, the “Fluorescence competitive binding assay, OBP2 (raw fluorescence reading)” value (SfurOBP2; ligand concentration 2 (unit not given), replicate column 1 of 3) was 21005 and the “Fluorescence competitive binding assay, OBP2 (raw fluorescence reading)” value (SfurOBP2; ligand concentration 2 (unit not given), replicate column 2 of 3) was 21502. The “Fluorescence competitive binding assay, OBP2 (raw fluorescence reading)” value (SfurOBP2; ligand concentration 2 (unit not given), replicate column 3 of 3) was 19080, the “Fluorescence competitive binding assay, OBP2 (raw fluorescence reading)” value (SfurOBP2; ligand concentration 4 (unit not given), replicate column 1 of 3) was 24365 and the “Fluorescence competitive binding assay, OBP2 (raw fluorescence reading)” value (SfurOBP2; ligand concentration 4 (unit not given), replicate column 2 of 3) was 22710. For the same molecule, the “Fluorescence competitive binding assay, OBP2 (raw fluorescence reading)” value (SfurOBP2; ligand concentration 4 (unit not given), replicate column 3 of 3) was 24844, the “Fluorescence competitive binding assay, OBP2 (raw fluorescence reading)” value (SfurOBP2; ligand concentration 6 (unit not given), replicate column 1 of 3) was 22191 and the “Fluorescence competitive binding assay, OBP2 (raw fluorescence reading)” value (SfurOBP2; ligand concentration 6 (unit not given), replicate column 2 of 3) was 22417. The “Fluorescence competitive binding assay, OBP2 (raw fluorescence reading)” value (SfurOBP2; ligand concentration 6 (unit not given), replicate column 3 of 3) was 22519, the “Fluorescence competitive binding assay, OBP2 (raw fluorescence reading)” value (SfurOBP2; ligand concentration 8 (unit not given), replicate column 1 of 3) was 23158 and the “Fluorescence competitive binding assay, OBP2 (raw fluorescence reading)” value (SfurOBP2; ligand concentration 8 (unit not given), replicate column 2 of 3) was 21663. The “Fluorescence competitive binding assay, OBP2 (raw fluorescence reading)” value (SfurOBP2; ligand concentration 8 (unit not given), replicate column 3 of 3) was 20781, the “Fluorescence competitive binding assay, OBP2 (raw fluorescence reading)” value (SfurOBP2; ligand concentration 10 (unit not given), replicate column 1 of 3) was 20596 and the “Fluorescence competitive binding assay, OBP2 (raw fluorescence reading)” value (SfurOBP2; ligand concentration 10 (unit not given), replicate column 2 of 3) was 20292. The “Fluorescence competitive binding assay, OBP2 (raw fluorescence reading)” value (SfurOBP2; ligand concentration 10 (unit not given), replicate column 3 of 3) was 20233, the “Fluorescence competitive binding assay, OBP2 (raw fluorescence reading)” value (SfurOBP2; ligand concentration 12 (unit not given), replicate column 1 of 3) was 19697 and the “Fluorescence competitive binding assay, OBP2 (raw fluorescence reading)” value (SfurOBP2; ligand concentration 12 (unit not given), replicate column 2 of 3) was 18134. For the same molecule, the “Fluorescence competitive binding assay, OBP2 (raw fluorescence reading)” value (SfurOBP2; ligand concentration 12 (unit not given), replicate column 3 of 3) was 19454, the “Fluorescence competitive binding assay, OBP2 (raw fluorescence reading)” value (SfurOBP2; ligand concentration 14 (unit not given), replicate column 1 of 3) was 17572 and the “Fluorescence competitive binding assay, OBP2 (raw fluorescence reading)” value (SfurOBP2; ligand concentration 14 (unit not given), replicate column 2 of 3) was 18013. For the same molecule, the “Fluorescence competitive binding assay, OBP2 (raw fluorescence reading)” value (SfurOBP2; ligand concentration 14 (unit not given), replicate column 3 of 3) was 17420, the “Fluorescence competitive binding assay, OBP2 (raw fluorescence reading)” value (SfurOBP2; ligand concentration 16 (unit not given), replicate column 1 of 3) was 16408 and the “Fluorescence competitive binding assay, OBP2 (raw fluorescence reading)” value (SfurOBP2; ligand concentration 16 (unit not given), replicate column 2 of 3) was 15544. The “Fluorescence competitive binding assay, OBP2 (raw fluorescence reading)” value (SfurOBP2; ligand concentration 16 (unit not given), replicate column 3 of 3) was 15169, the “Fluorescence competitive binding assay, OBP2 (raw fluorescence reading)” value (SfurOBP2; ligand concentration 18 (unit not given), replicate column 1 of 3) was 18334 and the “Fluorescence competitive binding assay, OBP2 (raw fluorescence reading)” value (SfurOBP2; ligand concentration 18 (unit not given), replicate column 2 of 3) was 23371. For the same molecule, the “Fluorescence competitive binding assay, OBP2 (raw fluorescence reading)” value (SfurOBP2; ligand concentration 18 (unit not given), replicate column 3 of 3) was 18960, the “Fluorescence competitive binding assay, OBP2 (raw fluorescence reading)” value (SfurOBP2; ligand concentration 20 (unit not given), replicate column 1 of 3) was 17296 and the “Fluorescence competitive binding assay, OBP2 (raw fluorescence reading)” value (SfurOBP2; ligand concentration 20 (unit not given), replicate column 2 of 3) was 16882. For the same molecule, the “Fluorescence competitive binding assay, OBP2 (raw fluorescence reading)” value (SfurOBP2; ligand concentration 20 (unit not given), replicate column 3 of 3) was 15413, the IC50 (SfurOBP3) was > 20 µM and the “Fluorescence competitive binding assay, fluorescence intensity” value (SfurOBP3; ligand concentration 2) was 99229 and 86961 and 92264. The “Fluorescence competitive binding assay, fluorescence intensity” value (SfurOBP3; ligand concentration 4) was 97193 and 95605 and 87600, the “Fluorescence competitive binding assay, fluorescence intensity” value (SfurOBP3; ligand concentration 6) was 102900 and 102445 and 98166 and the “Fluorescence competitive binding assay, fluorescence intensity” value (SfurOBP3; ligand concentration 8) was 100522 and 107674 and 104095. The “Fluorescence competitive binding assay, fluorescence intensity” value (SfurOBP3; ligand concentration 10) was 49630 and 50618 and 48648, the “Fluorescence competitive binding assay, fluorescence intensity” value (SfurOBP3; ligand concentration 12) was 46251 and 47333 and 45186 and the “Fluorescence competitive binding assay, fluorescence intensity” value (SfurOBP3; ligand concentration 14) was 39681 and 44579 and 42492. For the same molecule, the “Fluorescence competitive binding assay, fluorescence intensity” value (SfurOBP3; ligand concentration 16) was 42940 and 41521 and 40287, the “Fluorescence competitive binding assay, fluorescence intensity” value (SfurOBP3; ligand concentration 18) was 51522 and 51973 and 51748 and the “Fluorescence competitive binding assay, fluorescence intensity” value (SfurOBP3; ligand concentration 20) was 50731 and 60428 and 55580.
